This is an account of results in patent US10167299B2, “1-(3-aminopropyl) substituted cyclic amine compounds, preparation method therefor, and pharmaceutical compositions and uses thereof” (SHANGHAI INSTITUTE OF MATERIA MEDICA, CHINESE ACADEMY OF …, priority 2013, dated 2019).

Converted amounts (≈) assume the structure as drawn.

Data set [1] relates to HIV-1SF162 virus strain. Put plainly: Inhibition activity on TZM-bl cells infected with HIV-1SF162.
Data set [2] addresses CCR5 (Homo sapiens (Human), UniProt P51681). The data set is described as follows: Calcium flux inhibition experiment. Format: cell-based. As to conditions: for IC50: HEK293/CCR5-Gα16 cell line, calcium flux, read-out: CCR5 IC50; for calcium influx inhibition effect in words, versus positive control compounds: conclusion from Table 1. A general note: Calcium flux is commonly read through the fluorescence of an indicator in the cells.

Data set [3] relates to CCR5 protein. The data set is described as follows: Thermal stability of protein test (CPM-assay). It counts as binding. As to conditions: for Tm (° C.): thermal stability of CCR5 protein with compound, CPM dye. An excerpt: Experimental theory: many cysteines are present in CCR5 protein sequence. Cysteines located in loop region form disulfide bonds to stabilize the tertiary structure of the protein. Some free cysteines in reduced state are located in the transmembrane region. Under excitation by incident light of 387 nm, the combination of free sulfhydryl and fluorescent dye CPM can emit excitation light of 436 nm. […] The free sulfhydryls originally located in the transmembrane region expose and combine with the fluorescent dye. And then the detector will detect changes in signal enhancement. Therefore, the thermal stability of membrane proteins can be determined according to the temperature (Tm) at the midpoint of changes in signal intensity.
Experimental steps: Upon preliminary purification, the obtained protein solution was transferred into a small concentration tube (100 kd, 500 ul) for concentration (1000 rcf, 12 min, 4° C.). After centrifugation, the concentration tube was taken out and flicked to prevent protein coagulation due to high local concentration. The final concentrated volume was about 50 μl. 117 μl of purified solution (volume is suitable to make the total volume up to 120 μl), 1 μl fluorescent dye cpm (in-house prepared) and 2 μl of concentrated protein solution (the amount of added protein is 3-5 μg according to the calculated concentration of the protein solution and the concentrated volume) were added to 2 ml Ependorf tube and incubated at room temperature for 20 min. And then the mixture was added to the cuvette (Qwan) and put in the testing equipment Cary, wherein the surface of the frosted glass faced out. The temperature was set in the range of 4-90° C. with 1° C. increase per minute and the program was run. Tm value can be obtained by processing the data and graph with a mapping software and can be used to compare the difference of protein thermal stability under different conditions.

The subject of data set [4] is TZM-bl cells. The data set is described as follows: Cytotoxicity (CC50) in TZM-bl cells. It counts as cell-based. As to conditions: TZM-bl cells (Table 3).
Data set [5] addresses hERG (Homo sapiens (Human), UniProt Q12809).
Protocol: CHO-hERG cells which have been incubated overnight were added with sample buffer and incubated for 90 minutes at room temperature in darkness.
The sample buffer was removed and assay buffer was added.
The compound is added to the cell plate and incubated for 20 minutes in darkness.
Cell plate was placed into FDSS. The fluorescence signal was recorded every second for 10 seconds. Exciting buffer was added to the cells at the 10th second and the fluorescence signal was recorded every second for 180 seconds
Data set [6] relates to HIV-1Ba-L virus strain. Put plainly: Inhibition of viral replication in HOS-CD4-CCR5 cells infected with HIV-1Ba-L. It counts as cell-based. As for the experimental part:
(§1) On the day before the test, 1×10^5/ml of HOS-CD4-CCR5 cells were inoculated in 96-well plates with 100 μl for each well. The compound to be tested was subject to 5-fold dilution in 96-well microtiter plate with DMEM complete medium (containing 10% FBS). The starting concentration was 1 μM and six dilutions were obtained. Triplicate wells were set for each dilution and each well contained 100 μl mixture. While wells not containing drugs were set as control. The supernatant was removed and 100 μl of drug was added and incubated for 2 h. Then 100 μl of HIV-1SF162 and HIV-1Ba-L were added to dilute supernatant. The cells were infected for 1 h, free virus was washed out and drug with the same final concentration was added. MVC was used as positive control. The cells were cultured at 37° C. with 5% CO2 for three days. The supernatant was collected, lysed and inactivated with 0.5% Triton X-100. The inhibition effect of drug on HIV-1 replication was detected using p24 antigen capture ELISA method.

For data set [7], the system named is HIV-1Ba-L virus strain. The data set is described as follows: Inhibition of viral replication in PBMC infected with HIV-1Ba-L. Format: cell-based. The method, then: (§2) The virus was titrated according to the modified method of Johnson & Byington. Briefly, the HIV-1 stock solution was subject to four-fold dilution in a 96-well plate (ten gradients) sextuplicate for each gradient, while setting six control-wells. Into each well was added 100 μl (5×10^6/ml) PHA-stimulated PBMC cells and final volume per well was 200 μl. The cells were cultured at 37° C. with 5% CO2. On the third day, 100 μl of fresh RPMI-1640 complete medium was supplemented. On the seventh day, the infected supernatant was collected and lysed with 0.5% Triton X100. The p24 antigen was detected by ELISA and TCID50 of virus was calculated according to Reed & Muench method (50% Tissue culture infection dose).
(§3) The compound to be tested was subject to 5-fold dilution in 48-well plate with RPMI-1640 complete medium (containing 10% FBS). The starting concentration was 1 μM, six dilutions were obtained, and each well contained 200 μl mixture. While wells not containing drugs were set as control. Virus (MOI=0.01) was added to 5×10^6/ml of PBMC cells which have been stimulated by PHA for 72 h. After homogeneously mixed, the mixture was immediately added to 48-well plate containing diluted drug and each well was added with 200 μl of mixture. MVC was used as positive control. The cells were cultured at 37° C. with 5% CO2 for seven days (drug with the same concentration was added on the third day). The supernatant was collected, lysed and inactivated with 0.5% Triton X-100. The inhibition effect of drug on HIV-1 replication was detected using p24 antigen capture ELISA method.

Data set [8] can be described thus: Toxicity test of compounds on HOS-CD4-CCR5 cells (MTT). Format: cell-based. As to conditions: human; HOS-CD4+-CCR5 cells (Table 7). The method, then: (§4) The compound to be tested was subject to 5-fold dilution in a 96-well microtiter plate with RPMI-1640 or DMEM complete medium (containing 10% FBS) (Six dilution) triplicate for each dilution and 100 μl for each well. While wells not containing drugs were set as control. Into each well was added 100 μl of 4×10^5/ml PM1, HOS-CD4-CCR5 cells or 100 μl of 5×10^6/ml PHA stimulated PBMC. The cells were cultured at 37° C. with 5% CO2 for three days (PBMC cells were cultured for seven days and 100 μl of fresh RPMI-1640 complete medium was supplemented on the third day). Cytotoxicity was tested with MTT assay. OD values were measured by ELx800 microplate reader. The detection wavelength was 570 nm, and the reference wavelength was 630 nm.

Data set [9] concerns HIV-1KM018 virus strain. The data set is described as follows: Inhibition of viral replication in PBMC infected with HIV-1KM018. Format: cell-based. As to conditions: Human immunodeficiency virus 1, PBMC. The method, then: as §2, with “On the third day, 100 μl of fresh RPMI-1640 complete medium was supplemented.” left out
as §3, with “The” for “The compound to be tested was subject to 5-fold dilution in 48-well plate with RPMI-1640 complete medium (containing 10% FBS). The”, “Virus (MOI=0.01) was added to 5×10^6/ml of PBMC cells which have been stimulated by PHA for 72 h.” left out

In data set [10] the test system is HIV-1SF162 virus strain. Put plainly: Inhibition of viral replication in PBMC infected with HIV-1SF162. It counts as cell-based. As for the experimental part:
as §2, with “On the third day, 100 μl of fresh RPMI-1640 complete medium was supplemented.” left out
as §3, with “The” for “The compound to be tested was subject to 5-fold dilution in 48-well plate with RPMI-1640 complete medium (containing 10% FBS). The”, “Virus (MOI=0.01) was added to 5×10^6/ml of PBMC cells which have been stimulated by PHA for 72 h.” left out

Data set [11] has as its system HIV-1SF162 virus strain. Put plainly: Inhibition of viral replication in HOS-CD4-CCR5 cells infected with HIV-1SF162. Format: cell-based. As to conditions: Human immunodeficiency virus 1, HOS-CD4-CCR5. As for the experimental part:
as §1

Data set [12] in a line: Cytotoxicity (CC50) in TZM-bl cells. Format: cell-based. The settings on record: human; TZM-bl cells (Table 3); read-out: CC50.
Data set [13] in a line: Toxicity test of compounds on PBMC cells (MTT). Format: cell-based. As to conditions: human; PBMC cells (Table 4). As for the experimental part:
as §4

The target of data set [14] is CYP2C19 (Homo sapiens (Human), UniProt P33261). Put plainly: CYP450 inhibition activity assay (Vivid kit) CYP2C19. It counts as in vitro ADME. As to conditions: CYP450 subtype (μM) 2C19 (IC50).
Protocol: (§5) VividR CYP450 Screening Kits can be used to evaluate the effects on CYP450 subtypes (CYP1A2, CYP2D6, CYP2C9, CYP2C19, CYP3A4-T and CYP3A4-M) and the substrate VividR in the kit can be metabolizd to a product which can emit strong fluorescence in an aqueous solution by specific CYP450 enzymes.
(§6) The compounds to be tested and positive compound were added to corresponding wells and DMSO was added to control wells.
(§7) CYP450 enzyme was added to the compounds to be tested, positive compound and DMSO control wells. The enzyme dilution was used to replace enzyme and added to DMSO wells as test background. The mixture was vibrated and mixed for 1 minute, and then incubated at room temperature for 20 minutes.
(§8) NADP^+ regeneration system and the substrate were added to initiate the reaction and incubated at room temperature for 60 minutes.
Data set [15] addresses CYP2D6 (Homo sapiens (Human), UniProt P10635). Put plainly: CYP450 inhibition activity assay (Vivid kit) CYP2D6. Format: in vitro ADME. The settings on record: CYP450 subtype (μM) 2D6 (IC50).
Protocol: as §5, §6, §7, §8
The target in data set [16] is CYP1A2 (Homo sapiens (Human), UniProt P05177). The data set is described as follows: CYP450 inhibition activity assay (Vivid kit) CYP1A2. It counts as in vitro ADME. As to conditions: CYP450 subtype (μM) 1A2 (IC50).
Protocol: as §5, §6, §7, §8
In data set [17] the target is CYP2C9 (Homo sapiens (Human), UniProt P11712). Put plainly: CYP450 inhibition activity assay (Vivid kit) CYP2C9. It counts as in vitro ADME. As to conditions: CYP450 subtype (μM) 2C9 (IC50).
Protocol: as §5, §6, §7, §8
The conditions of data set [18]: marketed drug, literature value, species not stated; cited from earlier work.
Setting [19] is: TZM-bl cells infected with HIV-1SF162.
The mark [20] stands for this setting: Human immunodeficiency virus 1, TZM-bl.
The mark [21] stands for this setting: Human immunodeficiency virus 1, PBMC.

Chain of CCR5 (P51681 whole entry): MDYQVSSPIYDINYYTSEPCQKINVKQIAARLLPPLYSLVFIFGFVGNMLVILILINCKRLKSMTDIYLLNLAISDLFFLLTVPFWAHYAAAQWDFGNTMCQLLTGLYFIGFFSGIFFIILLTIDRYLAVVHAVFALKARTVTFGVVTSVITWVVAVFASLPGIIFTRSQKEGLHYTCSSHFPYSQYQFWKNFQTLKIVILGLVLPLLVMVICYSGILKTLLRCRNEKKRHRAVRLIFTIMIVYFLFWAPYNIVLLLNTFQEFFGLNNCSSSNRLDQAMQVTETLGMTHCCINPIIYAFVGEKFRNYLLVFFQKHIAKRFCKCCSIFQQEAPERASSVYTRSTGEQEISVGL
Chain of hERG (Q12809 whole entry): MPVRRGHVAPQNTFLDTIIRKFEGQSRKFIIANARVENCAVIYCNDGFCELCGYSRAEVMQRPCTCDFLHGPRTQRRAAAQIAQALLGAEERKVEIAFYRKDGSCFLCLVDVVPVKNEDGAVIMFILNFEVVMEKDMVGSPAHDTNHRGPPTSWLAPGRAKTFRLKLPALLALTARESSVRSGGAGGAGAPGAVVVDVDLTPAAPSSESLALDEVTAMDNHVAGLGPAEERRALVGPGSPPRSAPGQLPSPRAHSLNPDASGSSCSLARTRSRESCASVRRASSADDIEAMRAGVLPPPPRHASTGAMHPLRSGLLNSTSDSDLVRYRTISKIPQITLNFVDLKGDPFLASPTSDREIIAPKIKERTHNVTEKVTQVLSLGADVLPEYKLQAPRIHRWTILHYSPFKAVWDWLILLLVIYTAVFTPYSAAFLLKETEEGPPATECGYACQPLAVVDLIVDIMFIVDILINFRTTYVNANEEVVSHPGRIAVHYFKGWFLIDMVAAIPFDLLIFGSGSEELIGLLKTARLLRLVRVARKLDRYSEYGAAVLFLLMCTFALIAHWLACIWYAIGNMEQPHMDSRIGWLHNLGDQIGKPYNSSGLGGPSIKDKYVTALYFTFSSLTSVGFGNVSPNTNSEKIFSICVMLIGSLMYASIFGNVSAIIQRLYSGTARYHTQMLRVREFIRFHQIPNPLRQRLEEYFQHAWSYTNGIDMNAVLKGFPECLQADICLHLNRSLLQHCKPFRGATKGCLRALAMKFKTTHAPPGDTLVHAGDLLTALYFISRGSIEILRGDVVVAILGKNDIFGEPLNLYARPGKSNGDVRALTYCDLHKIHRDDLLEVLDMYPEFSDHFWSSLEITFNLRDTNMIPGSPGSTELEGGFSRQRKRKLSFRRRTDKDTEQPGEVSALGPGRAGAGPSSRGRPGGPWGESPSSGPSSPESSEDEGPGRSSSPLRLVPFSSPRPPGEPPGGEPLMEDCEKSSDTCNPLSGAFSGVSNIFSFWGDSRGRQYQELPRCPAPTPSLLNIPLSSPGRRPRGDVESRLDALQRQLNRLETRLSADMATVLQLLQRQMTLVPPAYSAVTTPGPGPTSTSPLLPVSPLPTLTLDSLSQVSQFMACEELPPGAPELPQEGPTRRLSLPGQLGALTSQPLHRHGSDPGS
Chain of CYP2D6 (P10635 whole entry): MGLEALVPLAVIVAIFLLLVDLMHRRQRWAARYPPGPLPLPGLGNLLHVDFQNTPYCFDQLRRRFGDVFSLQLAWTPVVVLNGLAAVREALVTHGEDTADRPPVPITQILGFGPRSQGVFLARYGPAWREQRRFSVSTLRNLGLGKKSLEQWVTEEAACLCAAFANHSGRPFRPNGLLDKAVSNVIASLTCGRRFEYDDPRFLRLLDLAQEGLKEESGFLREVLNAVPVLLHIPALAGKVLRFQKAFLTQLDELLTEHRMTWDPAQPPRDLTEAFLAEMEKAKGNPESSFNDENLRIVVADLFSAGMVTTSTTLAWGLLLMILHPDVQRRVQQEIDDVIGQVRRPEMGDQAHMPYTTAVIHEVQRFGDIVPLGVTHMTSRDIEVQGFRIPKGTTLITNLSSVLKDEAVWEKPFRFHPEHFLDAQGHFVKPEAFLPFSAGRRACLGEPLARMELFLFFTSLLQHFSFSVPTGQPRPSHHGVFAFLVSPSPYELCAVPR
Chain of CYP2C19 (P33261 whole entry): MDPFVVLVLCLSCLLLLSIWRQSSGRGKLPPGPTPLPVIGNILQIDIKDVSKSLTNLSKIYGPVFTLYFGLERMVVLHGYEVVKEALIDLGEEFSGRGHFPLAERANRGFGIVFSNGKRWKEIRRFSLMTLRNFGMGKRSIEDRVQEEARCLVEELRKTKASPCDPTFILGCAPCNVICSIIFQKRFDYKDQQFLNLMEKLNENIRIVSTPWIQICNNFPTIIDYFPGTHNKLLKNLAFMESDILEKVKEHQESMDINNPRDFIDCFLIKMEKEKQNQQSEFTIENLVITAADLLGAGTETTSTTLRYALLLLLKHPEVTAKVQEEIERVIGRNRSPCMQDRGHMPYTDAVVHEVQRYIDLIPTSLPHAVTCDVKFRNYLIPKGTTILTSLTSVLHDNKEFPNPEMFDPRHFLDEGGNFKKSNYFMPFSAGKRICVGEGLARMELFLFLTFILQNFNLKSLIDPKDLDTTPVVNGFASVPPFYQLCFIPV
Chain of CYP1A2 (P05177 whole entry): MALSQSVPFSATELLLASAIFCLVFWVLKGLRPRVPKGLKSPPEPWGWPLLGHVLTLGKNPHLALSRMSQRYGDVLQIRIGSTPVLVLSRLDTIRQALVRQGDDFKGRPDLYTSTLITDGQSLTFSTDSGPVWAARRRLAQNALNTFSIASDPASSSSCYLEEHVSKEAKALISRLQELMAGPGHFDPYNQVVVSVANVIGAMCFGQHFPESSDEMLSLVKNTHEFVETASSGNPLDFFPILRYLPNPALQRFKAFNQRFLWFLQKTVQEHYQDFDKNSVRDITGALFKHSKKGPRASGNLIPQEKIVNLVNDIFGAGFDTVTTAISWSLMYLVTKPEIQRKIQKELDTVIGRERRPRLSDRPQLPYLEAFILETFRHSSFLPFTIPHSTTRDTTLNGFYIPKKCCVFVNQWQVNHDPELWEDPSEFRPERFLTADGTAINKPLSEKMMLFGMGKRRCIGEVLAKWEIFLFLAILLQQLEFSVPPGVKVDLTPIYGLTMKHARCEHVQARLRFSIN
Chain of CYP2C9 (P11712 whole entry): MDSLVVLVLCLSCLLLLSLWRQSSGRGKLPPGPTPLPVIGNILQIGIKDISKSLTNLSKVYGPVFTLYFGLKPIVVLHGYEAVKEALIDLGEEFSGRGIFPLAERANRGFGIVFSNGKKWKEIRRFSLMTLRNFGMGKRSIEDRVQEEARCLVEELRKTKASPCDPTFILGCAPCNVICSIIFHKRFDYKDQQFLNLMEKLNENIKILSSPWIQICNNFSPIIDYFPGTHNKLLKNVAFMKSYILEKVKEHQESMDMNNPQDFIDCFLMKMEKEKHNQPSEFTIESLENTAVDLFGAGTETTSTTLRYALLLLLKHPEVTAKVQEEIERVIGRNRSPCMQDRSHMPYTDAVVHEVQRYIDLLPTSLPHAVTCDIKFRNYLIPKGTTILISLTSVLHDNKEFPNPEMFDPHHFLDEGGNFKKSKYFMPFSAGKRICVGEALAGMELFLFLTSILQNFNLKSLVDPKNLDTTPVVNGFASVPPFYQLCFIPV

One may read the EC50 as the concentration needed to bring the measured effect to its halfway point. For orientation: IC50 means the concentration that gives 50% inhibition. A word on the CC50: it is the concentration giving 50% cytotoxicity. On to “4,4-difluoro-N-[(1S)-3-[exo-3-(3-isopropyl-5-methyl-4H-1,2,4-triazol-4-yl)-8-azabicyclo[3.2.1]octane-8-yl]-1-(pyridin-3-yl)propyl]cyclohexane-1-carboxamide [Compound 6]”, for which, in data set [1] (setting [19]), the “EC50” value is 1.51 µg/mL and the “therapeutic index (TI)” value is given as 66.23. In data set [2], the IC50 came out at 0.0069 µM and the “calcium influx inhibition effect in words, versus positive control compounds” value was “better than the positive control compounds”. The “Tm (° C.)” value in data set [3] was 58.56 °C. For the same molecule, the “CC50” value in data set [4] was more than 100 µg/mL.

Regarding “4-ethyl-N-[(1S)-3-[exo-3-(3-isopropyl-5-methyl-4H-1,2,4-triazol-4-yl)-8-azabicyclo[3.2.1]octane-8-yl]-1-(thiophen-3-yl)propyl]cyclopentane-1-carboxamide [Compound 20]”, in [1] (setting [19]), the “EC50” value was 0.00487 µg/mL and the “therapeutic index (TI)” value is reported as 14308.01. In [5], 14.4 µM corresponded to half-maximal inhibition (IC50) and the “hERG inhibition activity in words, versus positive control compounds” value is on record as “better that those of positive control compounds”. Further, in [2], the IC50 was determined as 0.00514 µM and the “calcium influx inhibition effect in words, versus positive control compounds” value is listed as “better than the positive control compounds”. Further, the “protein stability effect in words, versus positive control compound” value in data set [3] (conclusion from Table 2) was “comparable with the positive control compound”. Besides, in [3], the “Tm (° C.)” value amounted to 70.27 °C. Also, the cytotoxic concentration (CC50) in data set [4] came to 69.68 µg/mL.

As to `Cc1nnc(C(C)C)n1C1CC2CCC(C1)N2CCC(NC(=O)C1CCC(F)(F)CC1)c1cccs1` (stereo not drawn) [Compound 3, 4,4-difluoro-N-[3-[exo-3-(3-isopropyl-5-methyl-4H-1,2,4-triazol-4-yl)-8-azabicyclo[3.2.1]octane-8-yl]-1-(thiophen-2-yl)propyl]cyclohexane-1-carboxamide], the EC50 in data set [1] (setting [20]) is 0.0024 µg/mL (≈ 0.00462 µM); in data set [6] (Human immunodeficiency virus 1, HOS-CD4-CCR5), 0.0171 µg/mL (≈ 0.033 µM); in [7] (setting [21]), 0.0912 µg/mL (≈ 0.176 µM); in data set [9] it was 0.0157 µg/mL (≈ 0.0301 µM); in data set [10] (setting [21]) it was 0.146 µg/mL (≈ 0.281 µM); in [11], 0.0244 µg/mL (≈ 0.047 µM). For the same molecule, the “therapeutic index (TI)” value in data set [1] (setting [19]) is listed as more than 41666.67; in data set [6] (HOS-CD4+-CCR5 cells infected with HIV-1Ba-L), 19495; in data set [7] (PBMC cells infected with HIV-1Ba-L) it was 3328.9; in data set [10] (PBMC cells infected with HIV-1SF162), 1874. Also, the “cytotoxicity in vitro and therapeutic index in words, versus positive control compound” value in [1] (TZM-bl cells infected with HIV-1SF162, conclusion from Table 3) is reported as “better than positive control compound”. The CC50 at 3 days in data set [8] was 334 µg/mL (≈ 643 µM); in data set [12] it was more than 100 µg/mL. Further, half-maximal cytotoxicity in data set [13] (CC50 at 7 days) was put at 273 µg/mL (≈ 526 µM).

In the case of `Cc1nnc(C(C)C)n1[C@@H]1C[C@H]2CC[C@@H](C1)N2CC[C@H](NC(=O)C1CCC(F)(F)CC1)c1cccc(F)n1` [Compound 34, 4,4-difluoro-N-[(1S)-3-[exo-3-(3-isopropyl-5-methyl-4H-1,2,4-triazol-4-yl)-8-azabicyclo[3.2.1]octane-8-yl]-1-(6-fluoropyridin-2-yl)propyl]cyclohexane-1-carboxamide], the “EC50” value in [1] (setting [19]) was more than 40 µg/mL. Also, the IC50 in [2] is 0.143 µM. Further, the “CC50” value in data set [4] was more than 200 µg/mL.

`Cc1nnc(C(C)C)n1[C@@H]1C[C@H]2CC[C@@H](C1)N2CC[C@H](NC(=O)C1CCC(F)(F)CC1)c1ccccc1` [Maraviroc, reference compound] came in with an EC50 in data set [1] (setting [20]) of 0.00814 µg/mL (≈ 0.0158 µM). Besides, the IC50 in data set [14] was more than 25 µM; in [15], more than 25 µM; in data set [16], more than 25 µM; in data set [17], 14.4 µM. For the same molecule, the “Tm (° C.)” value in data set [3] is 72.17 °C. In [12], the CC50 was more than 200 µg/mL. Also, the bioavailability as reported in [18] was 5%.
